From PubChem BioAssay AID328 (DTP/NCI, 2004)
Several values for one entry are separate records, joined by “and”; a condition that tells them apart may be missing. Identical values can stand only once. Inconclusive results and toxic doses are left out.

Test system: BDF1 mice, P388 leukemia ip, median survival T/C
Assay: NCI In Vivo Anticancer Drug Screen. Data for tumor model P388 Leukemia (intraperitoneal) in B6D2F1 (BDF1) mice
Settings: endpoint: median survival time, higher = longer survival
Protocol: The antitumor activity of compounds was measured in mice bearing transplantable tumors. Survival or tumor size were measured and the results are expressed as the measurement made in the treated group (T) divided by the measurement made in the vehicle treated control group (C). The tumor model used in this assay is P388 Leukemia (intraperitoneal) in B6D2F1 (BDF1) mice

[1] = dose: 12.5 mg/kg/injection, schedule: Q01DX009 (ip), vehicle: saline with Tween-80
[2] = dose: 25.0 mg/kg/injection, schedule: Q01DX009 (ip), vehicle: saline with Tween-80
[3] = dose: 50.0 mg/kg/injection, schedule: Q01DX009 (ip), vehicle: saline with Tween-80

CC(=O)Oc1c(Cl)c(Cl)c(Cl)c(Cl)c1Cl
T/C (dose: 100.0 mg/kg/injection, schedule: Q01DX001 (ip), vehicle: saline with Tween-80): 115 % of control
T/C (dose: 200.0 mg/kg/injection, schedule: Q01DX001 (ip), vehicle: saline with Tween-80): 95 % of control
T/C (dose: 400.0 mg/kg/injection, schedule: Q01DX001 (ip), vehicle: saline with Tween-80): 100 % of control

CC1=NNB(O)c2ccsc21
T/C [1]: 107 % of control
T/C [2]: 90 % of control
T/C [3]: 96 % of control

CCOC(=O)N/N=C\c1cc(OC)c(OC)c(OC)c1
T/C (dose: 6.25 mg/kg/injection, schedule: Q01DX009 (ip), vehicle: saline with Tween-80): 95 % of control
T/C [1]: 90 % of control
T/C [2]: 90 % of control
T/C [3]: 90 % of control
T/C (dose: 50.0 mg/kg/injection, schedule: Q04DX003 (ip), vehicle: saline with Tween-80): 100 % of control
T/C (dose: 100.0 mg/kg/injection, schedule: Q04DX003 (ip), vehicle: saline with Tween-80): 108 % of control
T/C (dose: 200.0 mg/kg/injection, schedule: Q04DX003 (ip), vehicle: saline with Tween-80): 104 % of control

NC(=S)N/N=C/c1c[nH]c2ccccc12
T/C (dose: 100.0 mg/kg/injection, schedule: Q04DX003 (ip), vehicle: Klucel (hydroxypropylcellulose) (HPC)): 100 % of control
T/C (dose: 200.0 mg/kg/injection, schedule: Q04DX003 (ip), vehicle: Klucel (hydroxypropylcellulose) (HPC)): 113 % of control
T/C (dose: 400.0 mg/kg/injection, schedule: Q04DX003 (ip), vehicle: Klucel (hydroxypropylcellulose) (HPC)): 104 % of control

C(/C=C/C=C/N1CCCCC1)=[N+]1CCCCC1
T/C (dose: 0.13 mg/kg/injection, schedule: Q01DX009 (ip), vehicle: saline): 97 % of control
T/C (dose: 0.25 mg/kg/injection, schedule: Q01DX009 (ip), vehicle: saline): 104 % of control
T/C (dose: 0.5 mg/kg/injection, schedule: Q01DX009 (ip), vehicle: saline): 89 % of control
T/C (dose: 1.0 mg/kg/injection, schedule: Q01DX009 (ip), vehicle: saline): 110 % of control

CCNC(=O)c1cc2cccc(OC)c2oc1=N
T/C (dose: 200.0 mg/kg/injection, schedule: Q01DX009 (ip), vehicle: saline): 86 % of control

COc1cc(C=Nc2ccc(C(=O)O)cc2)ccc1N(CCCl)CCCl
T/C (dose: 1.3 mg/kg/injection, schedule: Q04DX003 (ip), vehicle: saline with Tween-80): 115 % of control
T/C (dose: 2.0 mg/kg/injection, schedule: Q04DX003 (ip), vehicle: saline with Tween-80): 111 % of control
T/C (dose: 3.0 mg/kg/injection, schedule: Q04DX003 (ip), vehicle: saline with Tween-80): 162 % of control
T/C (dose: 7.0 mg/kg/injection, schedule: Q04DX003 (ip), vehicle: saline with Tween-80): 150 % of control and 158 % of control
T/C (dose: 11.0 mg/kg/injection, schedule: Q04DX003 (ip), vehicle: saline with Tween-80): 170 % of control
T/C [1]: 195 % of control
T/C (dose: 16.0 mg/kg/injection, schedule: Q04DX003 (ip), vehicle: saline with Tween-80): 187 % of control
T/C (dose: 16.5 mg/kg/injection, schedule: Q04DX003 (ip), vehicle: saline with Tween-80): 169 % of control
T/C (dose: 25.0 mg/kg/injection, schedule: Q04DX003 (ip), vehicle: saline with Tween-80): 196 % of control
T/C (dose: 37.5 mg/kg/injection, schedule: Q04DX003 (ip), vehicle: saline with Tween-80): 107 % of control

N#C/C(=C/c1ccccc1)CBr
T/C (dose: 25.0 mg/kg/injection, schedule: Q01DX001 (ip), vehicle: saline with Tween-80): 102 % of control
T/C (dose: 50.0 mg/kg/injection, schedule: Q01DX001 (ip), vehicle: saline with Tween-80): 93 % of control

Nc1ccc2c(-c3cccc([N+](=O)[O-])c3)cc(=O)[nH]c2n1
T/C (dose: 100.0 mg/kg/injection, schedule: Q04DX003 (ip), vehicle: saline): 88 % of control
T/C (dose: 200.0 mg/kg/injection, schedule: Q04DX003 (ip), vehicle: saline): 87 % of control
T/C (dose: 400.0 mg/kg/injection, schedule: Q04DX003 (ip), vehicle: saline): 87 % of control

C=CC1C2CCC(C2)C1Cl (centres undefined)
T/C (dose: 50.0 mg/kg/injection, schedule: Q01DX009 (ip), vehicle: other): 100 % of control
T/C (dose: 100.0 mg/kg/injection, schedule: Q01DX009 (ip), vehicle: other): 104 % of control
T/C (dose: 200.0 mg/kg/injection, schedule: Q01DX009 (ip), vehicle: other): 107 % of control
